Reference: ChEMBL document CHEMBL1146903, “Modification of the clozapine structure by parallel synthesis” (Bioorg Med Chem Lett, 2006)

Columns and labels:
D(1A) dopamine receptor = D(1A) dopamine receptor (Homo sapiens, UniProt P21728); assay: Displacement of [3H]SCH 23390 from dopamine D1 receptor expressed in CHO cells; type: cell-based
D(2) dopamine receptor = D(2) dopamine receptor (Homo sapiens, UniProt P14416); assay: Displacement of [3H]methylspiperone from dopamine D2 receptor expressed in CHO cells; type: cell-based
Chain of D(2) dopamine receptor (P14416 whole entry): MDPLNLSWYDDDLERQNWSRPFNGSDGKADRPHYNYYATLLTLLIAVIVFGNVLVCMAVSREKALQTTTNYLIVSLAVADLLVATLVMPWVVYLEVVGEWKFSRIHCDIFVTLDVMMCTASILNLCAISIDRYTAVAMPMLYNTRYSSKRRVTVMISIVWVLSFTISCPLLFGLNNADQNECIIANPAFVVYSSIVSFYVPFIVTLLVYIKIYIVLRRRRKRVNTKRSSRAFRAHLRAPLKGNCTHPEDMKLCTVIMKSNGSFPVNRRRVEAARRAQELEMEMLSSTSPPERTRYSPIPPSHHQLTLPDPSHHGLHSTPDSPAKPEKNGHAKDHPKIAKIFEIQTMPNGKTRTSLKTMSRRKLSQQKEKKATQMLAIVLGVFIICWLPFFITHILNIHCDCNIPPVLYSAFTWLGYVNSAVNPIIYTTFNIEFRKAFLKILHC

Chain of D(1A) dopamine receptor (P21728 whole entry): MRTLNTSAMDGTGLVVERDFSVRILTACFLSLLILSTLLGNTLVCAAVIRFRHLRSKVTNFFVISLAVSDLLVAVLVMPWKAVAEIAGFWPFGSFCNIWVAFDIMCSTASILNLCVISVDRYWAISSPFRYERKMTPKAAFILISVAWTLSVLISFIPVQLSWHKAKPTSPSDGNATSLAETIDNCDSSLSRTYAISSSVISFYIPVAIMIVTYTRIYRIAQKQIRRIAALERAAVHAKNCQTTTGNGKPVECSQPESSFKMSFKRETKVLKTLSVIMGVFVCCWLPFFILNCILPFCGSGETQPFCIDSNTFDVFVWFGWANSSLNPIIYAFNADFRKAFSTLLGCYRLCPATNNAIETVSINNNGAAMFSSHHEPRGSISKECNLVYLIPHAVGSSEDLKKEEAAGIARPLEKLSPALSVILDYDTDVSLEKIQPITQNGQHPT

| Compound | Ki (D(1A) dopamine receptor) [nM] | Ki (D(2) dopamine receptor) [nM] |
| --- | --- | --- |
| Clc1ccc2c(c1)N=C(N1CCN(Cc3cccc4c3OCO4)CC1)c1ccccc1N2 | 637 | 80 |
| CN1CCN(C2=Nc3cc(Cl)ccc3N(C(=O)Nc3cc(Cl)cc(Cl)c3)c3ccccc32)CC1 | 175 | 3900 |
| CN1CCN(C2=Nc3cc(Cl)ccc3N(NC(=O)c3ccc4c(c3)OCO4)c3ccc(Cl)cc32)CC1 | 130 | 286 |
| CCC(CC)CN1CCN(C2=Nc3cc(Cl)ccc3N(NC(=O)c3ccccc3Cl)c3ccccc32)CC1 | 505 | > 3000 |
| CN1CCN(C2=Nc3ccccc3N(NC(=O)c3cc(F)c(F)c(F)c3F)c3ccc(Cl)cc32)CC1 | 156 | 759 |
| Fc1ccc(CN2CCN(C3=Nc4cc(Cl)ccc4Nc4ccccc43)CC2)c(F)c1 | 835 | 177 |
| CN1CCN(C2=Nc3ccccc3N(NC(=O)c3cccc(C#N)c3)c3ccc(Cl)cc32)CC1 | 99 | 1190 |
| COc1cccc(C(=O)NN2c3ccccc3N=C(N3CCN(C)CC3)c3cc(Cl)ccc32)c1 | 86 | 1380 |
| CN1CCN(C2=Nc3cc(Cl)ccc3N(NC(=O)c3cc(F)c(F)c(F)c3F)c3ccc(Cl)cc32)CC1 | 98 | 270 |
| CN1CCN(C2=Nc3ccccc3N(NC(=O)c3ccc4c(c3)OCO4)c3ccc(Cl)cc32)CC1 | 83 | 1260 |
| Clc1ccc2c(c1)N=C(N1CCN(Cc3ccc4c(c3)OCCO4)CC1)c1ccccc1N2 | 583 | 29 |
| O=C(NN1c2ccc(Cl)cc2N=C(N2CCN(Cc3ccccc3F)CC2)c2ccccc21)c1ccccc1Cl | 503 | > 2000 |

Results, then the compound that gave them:

| Ki (D(1A) dopamine receptor) [nM] | Ki (D(2) dopamine receptor) [nM] | Compound |
| --- | --- | --- |
| 65 | 338 | Cc1ccc(S(=O)(=O)N2c3ccc(Cl)cc3N=C(N3CCN(C)CC3)c3ccccc32)cc1 |
| 60 | 202 | COc1ccccc1CNN1c2ccc(Cl)cc2N=C(N2CCN(C)CC2)c2ccccc21 |
| 68 | > 2000 | CN1CCN(C2=Nc3cc(Cl)ccc3N(NC(=O)c3ccc(C#N)cc3)c3ccccc32)CC1 |
| 47 | 175 | CN1CCN(C2=Nc3cc(Cl)ccc3N(NC(=O)c3cccc(C#N)c3)c3ccc(Cl)cc32)CC1 |
| 32 | 1280 | CN1CCN(C2=Nc3cc(Cl)ccc3N(NC(=O)c3cc(F)c(F)c(F)c3F)c3ccccc32)CC1 |
| 11 | 97 | COc1cccc(OC)c1C(=O)NN1c2ccc(Cl)cc2N=C(N2CCN(C)CC2)c2cc(Cl)ccc21 |
| 62 | 3650 | CN1CCN(C2=Nc3cc(Cl)ccc3N(NC(=O)c3cccc(C#N)c3)c3ccccc32)CC1 |
| 4.1 | – | CN1CCN(C2=Nc3cc(Cl)ccc3N(NC(=O)c3ccccc3Cl)c3ccccc32)CC1 |
| 12 | 36 | CN1CCN(C2=Nc3cc(Cl)ccc3N(NC(=O)c3ccccc3I)c3ccc(Cl)cc32)CC1 |
| 81 | > 3000 | CC(C)CN1CCN(C2=Nc3cc(Cl)ccc3N(NC(=O)c3ccccc3Cl)c3ccccc32)CC1 |
| 16 | 267 | COc1cc(C(=O)NN2c3ccc(Cl)cc3N=C(N3CCN(C)CC3)c3cc(Cl)ccc32)cc(OC)c1OC |
| 22 | 421 | CN1CCN(C2=Nc3ccccc3N(NC(=O)c3cc(F)ccc3C(F)(F)F)c3ccc(Cl)cc32)CC1 |
| 64 | 1970 | CN1CCN(C2=Nc3ccccc3N(NC(=O)c3ccc(C#N)cc3)c3ccc(Cl)cc32)CC1 |
| 26 | 409 | CCCN1CCN(C2=Nc3cc(Cl)ccc3N(NC(=O)c3ccccc3Cl)c3ccccc32)CC1 |
| 56 | 828 | CN1CCN(C2=Nc3cc(Cl)ccc3N(NC(=O)c3ccc4c(c3)OCO4)c3ccccc32)CC1 |
| 7 | 231 | CN1CCN(C2=Nc3ccccc3N(NC(=O)c3ccccc3I)c3ccc(Cl)cc32)CC1 |
| 6 | 197 | COc1cccc(OC)c1C(=O)NN1c2ccccc2N=C(N2CCN(C)CC2)c2cc(Cl)ccc21 |
